Source: patent US5980933A, “Transdermal formulation of xanomeline” (Eli Liily and Company, priority 1997, dated 1999)

Key:
[1] = tested on: muscarinic receptors in the brain; assay: Ex vivo 3H-pirenzepine binding in rat brain after patch application; settings: after oral administration
Protocol: The patches prepared as stated herein were applied to rats. The rats were killed in pairs at various time points after application and the rat brains were removed and frozen. The binding of the M1 antagonist ligand, ^3 H-pirenzepine, to muscarinic receptors in the brain was determined. The decrease in binding is indicative of drug or active metabolite present in the brain. The effect of the drug after oral administration lasts less than 6 hours. The percent of control ex vivo pirenzepine binding at 6 hours was 33%, at 12 hours 15%, at 24 hours 26%, and at 48 hours 53%. The mean plasma concentration using this patch formulation was as follows: […]
The patches prepared as stated herein were applied to rats. The rats were killed in pairs at various time points after application and the rat brains were removed and frozen. The binding of the M1 antagonist ligand, ^3 H-pirenzepine, to muscarinic receptors in the brain was determined. The decrease in binding is indicative of drug or active metabolite present in the brain. The effect of the drug after oral administration lasts less than 6 hours. The percent of control ex vivo pirenzepine binding at 6 hours was 101%, at 12 hours 89%, at 24 hours 75%, and at 48 hours 105%.

[2] = Saturation limit of xanomeline in acrylic adhesive; format: physicochemical
From the text: The values had been derived from clear solutions of the drug in the adhesive. Unfortunately, the saturation limit of about 23-28% (w/w) in this polymer limits the utilization of this unexpected advantage of highly enriched xanomeline preparations. It is concluded from this unexpected results that an optimum formulation has to contain a slightly subsaturated, saturated or even supersaturated amount of xanomeline for best performance.

Compound: CCCCCCOc1nsnc1C1=CCCN(C)C1 [xanomeline, 3-[4-(hexyloxy)-1,2,5-thiadiazol-3-yl]-1,2,5,6-tetrahydro-1-methylpyridine]
- duration of the effect of the drug [1]: less than 6 hours
- saturation limit in this polymer [2]: 23-28 % (w/w)
